Data: patent publication US9232796B2, “Herbicidal compositions comprising 4-amino-3-chloro-5-fluoro-6-(4-chloro-2-fluoro-3-methoxyphenyl) pyridine-2-carboxylic acid or a derivative thereof and acetyl-CoA carboxylase (ACCase) inhibitors” (DOW AGROSCIENCES LLC, priority 2012, dated 2016)

Key:
IPOHE [1] = assay: Example V (second) postemergence foliar-applied ternary mixtures, greenhouse, direct seeded rice weeds; type: in vivo, Ipomoea hederacea Jacq.; settings: 6 gae/ha
Method: (§1) The treated plants and control plants were placed in a greenhouse as described above and watered by sub-irrigation to prevent wash-off of the test compounds. After approximately 3 weeks, the condition of the test plants as compared with that of the untreated plants was determined visually and scored on a scale of 0 to 100 percent where 0 corresponds to no injury or growth inhibition and 100 corresponds to complete kill.
(§2) Colby's equation was used to determine the herbicidal effects expected from the mixtures (Colby, S. R. 1967. Calculation of the synergistic and antagonistic response of herbicide combinations. Weeds 15:20-22.).
(§3) The following equation was used to calculate the expected activity of mixtures containing three active ingredients, A, B, and C: Expected=A+B+C−((A×B+A×C+B×C)/100)+(A×B×C/10000)

CYPES = assay: as above; type: in vivo, Cyperus esculentus L.
Method: as §1, §2, §3

LEFCH = assay: as above; type: in vivo, Leptochloa chinensis (L.) Nees
Method: as §1, §2, §3

IPOHE [2] = assay: Example I postemergence foliar-applied, greenhouse, direct seeded rice weeds; type: in vivo, Ipomoea hederacea Jacq.
Source text: (§4) Seeds or nutlets of the desired test plant species were planted in a soil matrix prepared by mixing a loam or sandy loam soil (e.g., 28.6 percent silt, 18.8 percent clay, and 52.6 percent sand, with a pH of about 5.8 and an organic matter content of about 1.8 percent) and calcareous grit in an 80 to 20 ratio. The soil matrix was contained in plastic pots with a volume of 1 quart and a surface area of 83.6 square centimeters (cm^2). When required to ensure good germination and healthy plants, a fungicide treatment and/or other chemical or physical treatment was applied. The plants were grown for 8-22 days in a greenhouse with an approximate 14 hr. photoperiod which was maintained at about 29° C. during the day and 26° C. during the night. Nutrients (Peters Excel® 15-5-15 5-Ca 2-Mg and iron chelate) were applied in the irrigation solution as needed and water was added on a regular basis. Supplemental lighting was provided with overhead metal halide 1000-Watt lamps as necessary. The plants were employed for testing when they reached the first through fourth true leaf stage.
(§5) Treatments consisted of the acid or esters of 4-amino-3-chloro-5-fluoro-6-(4-chloro-2-fluoro-3-methoxy-phenyl)pyridine-2-carboxylic acid (Compound A), each formulated as an SC (suspension concentrate), and various herbicidal components alone and in combination.
(§6) Other herbicidal components were applied on an acid equivalent (ae) or active ingredient (ai) basis and included acetyl coA carboxylase (ACCase)-inhibiting herbicides (cyclohexanedione and aryloxyphenoxypropionate chemical classes) cyhalofop-butyl formulated as Clincher® SF (285 gr ai/L EC), diclofop-methyl formulated as Hoelon® 3EC, fenoxaprop-p-ethyl+isoxadifen-ethyl formulated as RiceStar® HT (0.58 lb./gal EC), fenoxaprop-p-ethyl+mefenpyr diethyl formulated as Puma® IEC, metamifop formulated as Metamifop EC, haloxyfop-methyl formulated as Gallant Super®, fluazifop-p-butyl formulated as Fusilade® DX, quizalofop-p-ethyl formulated as Assure® II, profoxydim formulated as Aura® 20EC, clethodim applied as Intensity®, sethoxydim formulated as Poast®, and tralkoxydim formulated as Achieve®.
(§7) Treatment requirements were calculated based upon the rates being tested, the concentration of active ingredient or acid equivalent in the formulation, and a 12 mL application volume at a rate of 187 L/ha.
(§8) For treatments comprised of formulated compounds, measured amounts of compounds were placed individually in 25 mL glass vials and diluted in a volume of 1.25% (v/v) Agri-Dex® crop oil concentrated to obtain 12× stock solutions. […] Application solutions were prepared by adding an appropriate amount of each stock solution (e.g., 1 mL) and diluted to the appropriate final concentrations with the addition of 10 mL of an aqueous mixture of 1.25% (v/v) crop oil concentrate so that the final spray solutions contained 1.25+/−0.05% (v/v) crop oil concentrate.
(§9) All stock solutions and applications solutions were visually inspected for compound compatibility prior to application. Spray solutions were applied to the plant material with an overhead Mandel track sprayer equipped with a 8002E nozzles calibrated to deliver 187 L/ha over an application area of 0.503 m^2 at a spray height of 18 to 20 inches (46 to 50 cm) above average plant canopy height. Control plants were sprayed in the same manner with the solvent blank.
(§10) The treated plants and control plants were placed in a greenhouse as described above and watered by sub-irrigation to prevent wash-off of the test compounds. After approximately 3 weeks, the condition of the test plants as compared with that of the untreated plants was determined visually and scored on a scale of 0 to 100 percent where 0 corresponds to no injury or growth inhibition and 100 corresponds to complete kill. […]

SCPJU = assay: as above; type: in vivo, Schoenoplectus juncoides (Roxb.) Palla
Source text: as §4, §5, §6, §7, §8, §9, §10

ECHCO = assay: as above; type: in vivo, Echinochloa colona (L.) Link
Source text: as §4, §5, §6, §7, §8, §9, §10

KCHSC = assay: Example IV postemergence foliar-applied, greenhouse, cereal crops weeds; type: in vivo, Kochia scoparia (L.) Schrad.
Method: (§11) Seeds of the desired test plant species were planted in Sun Gro MetroMix® 306 planting mixture, which typically has a pH of 6.0 to 6.8 and an organic matter content of about 30 percent, in plastic pots with a surface area of 103.2 square centimeters (cm^2). […] The plants were grown for 7-36 days in a greenhouse with an approximate 14 hour photoperiod which was maintained at about 18° C. during the day and about 17° C. during the night. Nutrients and water were added on a regular basis and supplemental lighting was provided with overhead metal halide 1000-Watt lamps as necessary. The plants were employed for testing when they reached the second or third true leaf stage.
(§12) Treatments consisted of the benzyl ester of 4-amino-3-chloro-5-fluoro-6-(4-chloro-2-fluoro-3-methoxy-phenyl)pyridine-2-carboxylic acid (Compound A), formulated as an SC, a second cereal herbicide alone and then both in combination.
(§13) Other herbicidal components were applied on an active ingredient basis and included acetyl-CoA carboxylase (ACCase)-inhibiting herbicides clodinafop-propargyl, fenoxaprop-P-ethyl, pinoxaden and tralkoxydim.
(§14) Measured aliquots of benzyl ester of 4-amino-3-chloro-5-fluoro-6-(4-chloro-2-fluoro-3-methoxy-phenyl)pyridine-2-carboxylic acid (Compound A) were placed in 25 milliliter (mL) glass vials and diluted in a volume of 1.25% (v/v) Agri-Dex® crop oil concentrate to obtain stock solutions. Compound requirements are based upon a 12 mL application volume at a rate of 187 liters per hectare (L/ha). […] Formulated compounds were applied to the plant material with an overhead Mandel track sprayer equipped with an 8002E nozzle calibrated to deliver 187 L/ha over an application area of 0.503 square meters (m^2) at a spray height of 18 inches (46 cm) above average plant canopy. Control plants were sprayed in the same manner with the solvent blank.
(§15) The treated plants and control plants were placed in a greenhouse as described above and watered by sub-irrigation to prevent wash-off of the test compounds. After 20-22 days, the condition of the test plants as compared with that of the control plants was determined visually and scored on a scale of 0 to 100 percent where 0 corresponds to no injury and 100 corresponds to complete kill.
as §2
(§16) The following equation was used to calculate the expected activity of mixtures containing two active ingredients, A and B: Expected=A+B−(A×B/100)

PHAMI = assay: as above; type: in vivo, Phalaris minor Retz.
Method: as §11, §12, §13, §14, §15, §2, §16

ECHCG = assay: Example V (second) postemergence foliar-applied ternary mixtures, greenhouse, direct seeded rice weeds; type: in vivo, Echinochloa crus-galli (L.) Beauv.; settings: 280 gai/ha
Source text: Seeds or nutlets of the desired test plant species were planted in a soil matrix prepared by mixing a sandy loam or loam soil (e.g., 32 percent silt, 23 percent clay, and 45 percent sand, with a pH of about 6.5 and an organic matter content of about 1.9 percent) and calcareous grit in an 80 to 20 ratio. The soil matrix was contained in plastic pots with a volume of 1 quart and a surface area of 83.6 square centimeters (cm^2). When required to ensure good germination and healthy plants, a fungicide treatment and/or other chemical or physical treatment was applied. The plants were grown for 8-22 days in a greenhouse with an approximate 14 hr. photoperiod which was maintained at about 29° C. during the day and 26° C. during the night. Nutrients (Peters Excel® 15-5-15 5-Ca 2-Mg and iron chelate) were applied in the irrigation solution as needed and water was added on a regular basis. Supplemental lighting was provided with overhead metal halide 1000-Watt lamps as necessary. The plants were employed for testing when they reached the first through fourth true leaf stage.
Treatments consisted of the benzyl ester of 4-amino-3-chloro-5-fluoro-6-(4-chloro-2-fluoro-3-methoxy-phenyl)pyridine-2-carboxylic acid (Compound A), formulated as an SC (suspension concentrate), an ACCase inhibitor, and a third herbicidal component, each applied alone and in ternary combination. Forms of compound A were applied on an acid equivalent basis.
The ACCase inhibitor component was applied on an active ingredient basis and included cyhalofop-R-butyl formulated as Clincher® SF, fenoxaprop-p-ethyl formulated as RiceStar® HT, and profoxydim formulated as Aura® 20EC. Other herbicidal components were applied on an active ingredient or acid equivalent basis depending on the compound and included penoxsulam formulated as Grasp® SC, bentazon sodium formulated as Basagran®, triclopyr […] (TEA) salt formulated as Grandstand® R, bispyribac sodium formulated as Regiment® 80WP, imazamox ammonium formulated as Beyond®, benzobicyclon, quinclorac formulated as Facet® 75DF, glyphosate dimethylammonium (DMA) salt formulated as Durango® DMA, glufosinate ammonium formulated as Ignite® 280, fentrazamide formulated as an emulsifiable concentrate (EC), propyrisulfuron formulated as Zeta One®, and indanofan (technical grade material).
as §7
For treatments comprised of formulated compounds, measured amounts of compounds were placed individually in 25 mL glass vials and diluted in a volume of 1.25% (v/v) Agri-Dex® crop oil concentrate to obtain 12× stock solutions. […] Application solutions were prepared by adding an appropriate amount of each stock solution (e.g., 1 mL) and diluted to the appropriate final concentrations with the addition of 9 mL of an aqueous mixture of 1.25% (v/v) crop oil concentrate so that the final spray solutions contained 1.25% (v/v) crop oil concentrate.
As required, additional water and/or 97:3 v/v acetone/DMSO was added to individual application solutions so that the final acetone and DMSO concentrations of the application solutions being compared were 8.1% and 0.25%, respectively.
All stock solutions and applications solutions were visually inspected for compound compatibility prior to application. Spray solutions were applied to the plant material with an overhead Mandel track sprayer equipped with a 8002E nozzles calibrated to deliver 187 L/ha over an application area of 0.503 m^2 at a spray height of 18 inches (46 cm) above average plant canopy height. Control plants were sprayed in the same manner with the solvent blank.
The treated plants and control plants were placed in a greenhouse as described above and watered by sub-irrigation to prevent wash-off of the test compounds. […]

COCc1cnc(C2=NC(C)(C(C)C)C(=O)N2)c(C(=O)O)c1 (stereo not shown) [Imazamox ammonium]
Visual Weed Control (%) - 21 DAA IPOHE Obs (IPOHE [1]): 65%
Visual Weed Control (%) - 21 DAA CYPES Obs (CYPES; 12 gae/ha): 60%

CCC1(CC2(c3cccc(Cl)c3)CO2)C(=O)c2ccccc2C1=O (stereo not shown) [Indanofan]
Visual Weed Control (%) - 22 DAA LEFCH Obs (LEFCH; 72.5 gai/ha): 30%
Visual Weed Control (%) - 22 DAA LEFCH Obs (LEFCH; 145 gai/ha): 38%

CCc1cc(C)cc(CC)c1-c1c(OC(=O)C(C)(C)C)n2n(c1=O)CCOCC2 [Pinoxaden, 8-(2,6-diethyl-4-methylphenyl)-1,2,4,5-tetrahydro-7-oxo-7H-pyrazolo[1,2-d][1,4,5]oxadiazepin-9-yl 2,2-dimethylpropanoate]
Visual Weed Control (%) - 21 DAA IPOHE Obs (IPOHE [2]; 15 gai/ha): 10%
Visual Weed Control (%) - 21 DAA IPOHE Obs (IPOHE [2]; 30 gai/ha): 10%
Visual Weed Control (%) - 21 DAA IPOHE Obs (IPOHE [2]; 60 gai/ha): 0%
Visual Weed Control (%) - 21 DAA SCPJU Obs (SCPJU; 15 gai/ha): 0%
Visual Weed Control (%) - 21 DAA SCPJU Obs (SCPJU; 30 gai/ha): 0%
Visual Weed Control (%) - 21 DAA SCPJU Obs (SCPJU; 60 gai/ha): 0%
Visual Weed Control (%) - 21 DAA ECHCO Obs (ECHCO; 15 gai/ha): 15%
Visual Weed Control (%) - 21 DAA ECHCO Obs (ECHCO; 30 gai/ha): 85%
Visual Weed Control (%) - 21 DAA ECHCO Obs (ECHCO; 60 gai/ha): 95%
Visual Weed Control (%) - 21 DAA KCHSC Obs (KCHSC; Pinoxaden 15 gai/ha): 0%
Visual Weed Control (%) - 21 DAA KCHSC Obs (KCHSC; Pinoxaden 30 gai/ha): 15%
Visual Weed Control (%) - 21 DAA PHAMI Obs (PHAMI; Pinoxaden 15 gai/ha): 78%
Visual Weed Control (%) - 21 DAA PHAMI Obs (PHAMI; Pinoxaden 30 gai/ha): 94%

O=C(O)c1c(Cl)ccc2cc(Cl)cnc12 [Quinclorac]
Visual Weed Control (%) - 21 DAA ECHCG Obs (ECHCG): 10%
Visual Weed Control (%) - 21 DAA CYPES Obs (CYPES; 280 gai/ha): 0%
